Test results taken from US20140066385A1, “METHOD FOR TREATING CANCER BY COMBINED USE OF DRUGS” (Astellas Pharma Inc., priority 2011, published 2014).

Experiments:
[1] = test system: renal ischemia/reperfusion injury; conditions: reported in Non-Patent Documents 3 and 4; cited from earlier work
[2] = test system: human breast cancer (MDA-MB-231); assay: Example 6: FK330 with paclitaxel in MDA-MB-231 tumor-bearing mice; assay type: in vivo, nude mice; conditions: FK330 100 mg/kg bid p.o. + paclitaxel 10 mg/kg/day i.v. (4 days each cycle), P<0.01
Experimental: The dose of FK330 is expressed in terms of the weight of a simple substance (non-hydrate). Paclitaxel was purchased from LC Laboratories, Inc. (Woburn, Mass., USA), and was used as paclitaxel.
FK330 was suspended (20 mg/mL) in a 0.5% aqueous methyl cellulose solution (0.5% MC), and was orally administered. Paclitaxel was prepared into a stock solution at 10 mg/mL with an ethanol/cremophor solution (mixed at 1:1), and then the stock solution was diluted to 1 mg/mL with physiological saline for injection (Otsuka Pharmaceutical Group) immediately before administration and was intravenously administered through the tail vein.
Human breast cancer-derived MDA-MB-231 (HTB-26) was obtained from American Type Culture Collection (VA, USA). […]
The body weight and the tumor diameter, determined by using a digital caliper, were measured twice a week. The tumor volume was calculated from the calculation formula for ellipsoid volume of (major axis×[minor axis]^2×0.5).
The results are expressed as the mean value (Mean)±standard error (SEM). […] Using the actual measured values of the tumor volume at each measurement time points, an unpaired statistical test (Student's t-test) of the difference between two groups was carried out between a single administration group and a combined use group. […]

[3] = test system: chronic rejection, rat aorta transplantation; conditions: reported in Non-Patent Document 2; cited from earlier work
[4] = target: inducible nitric oxide synthase (inducible NOS, iNOS) (Homo sapiens, UniProt P35228); conditions: reported in Non-Patent Document 1; cited from earlier work
Sequence of inducible nitric oxide synthase (inducible NOS, iNOS) (P35228 whole entry): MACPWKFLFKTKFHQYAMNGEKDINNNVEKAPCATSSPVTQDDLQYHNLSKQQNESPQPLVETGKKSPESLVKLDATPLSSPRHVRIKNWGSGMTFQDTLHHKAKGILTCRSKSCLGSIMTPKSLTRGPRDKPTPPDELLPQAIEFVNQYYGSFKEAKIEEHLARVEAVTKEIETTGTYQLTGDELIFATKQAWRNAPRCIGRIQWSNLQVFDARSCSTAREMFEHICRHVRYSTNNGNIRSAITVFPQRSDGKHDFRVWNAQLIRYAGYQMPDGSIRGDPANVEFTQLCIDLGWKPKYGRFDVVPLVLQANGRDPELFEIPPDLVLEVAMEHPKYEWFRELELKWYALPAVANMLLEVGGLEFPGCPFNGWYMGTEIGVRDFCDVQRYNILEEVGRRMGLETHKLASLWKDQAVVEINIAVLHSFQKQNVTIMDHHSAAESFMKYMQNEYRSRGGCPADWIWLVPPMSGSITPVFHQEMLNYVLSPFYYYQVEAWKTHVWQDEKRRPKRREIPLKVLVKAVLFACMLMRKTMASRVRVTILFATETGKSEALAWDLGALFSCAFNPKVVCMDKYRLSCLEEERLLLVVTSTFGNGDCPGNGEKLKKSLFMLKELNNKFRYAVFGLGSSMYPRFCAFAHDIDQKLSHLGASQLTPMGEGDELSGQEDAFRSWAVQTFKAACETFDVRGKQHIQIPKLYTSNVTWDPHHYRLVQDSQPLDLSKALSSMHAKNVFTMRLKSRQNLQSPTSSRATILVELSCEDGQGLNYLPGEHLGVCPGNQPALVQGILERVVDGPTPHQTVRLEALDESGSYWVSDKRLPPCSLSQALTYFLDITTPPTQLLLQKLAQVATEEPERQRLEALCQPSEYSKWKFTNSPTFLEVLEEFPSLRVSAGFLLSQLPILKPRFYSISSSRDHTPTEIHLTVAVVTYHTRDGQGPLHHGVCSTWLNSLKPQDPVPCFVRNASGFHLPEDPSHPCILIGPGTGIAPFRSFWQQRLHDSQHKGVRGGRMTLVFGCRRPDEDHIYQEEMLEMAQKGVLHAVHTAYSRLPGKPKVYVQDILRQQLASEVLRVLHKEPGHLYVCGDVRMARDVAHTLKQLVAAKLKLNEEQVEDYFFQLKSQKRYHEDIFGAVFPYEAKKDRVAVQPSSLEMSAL

## O=C(/C=C/c1ccc(Cl)cc1)N[C@@H](Cc1ccccn1)C(=O)NCC(=O)N1CCC(Oc2cc(C(F)(F)F)ncn2)CC1 [FK330, N^2-[(2E)-3-(4-chlorophenyl)-2-propenoyl]-N-[2-oxo-2-(4-{[6-(trifluoromethyl)pyrimidin-4-yl]oxy}piperidin-1-yl)ethyl]-3-pyridin-2-yl-L-alaninamide]
[1]
  efficacy for monkey renal ischemia/reperfusion injury: effective
[2]; Day 28
  tumor volume reduction ratio compared with the paclitaxel-only group: 59.6%
[2]; Day 66
  tumor volume reduction ratio compared with the paclitaxel-only group: 82.8%
[3]
  efficacy in chronic rejection model for rat aorta transplantation: effective
[4]
  inducible nitric oxide synthase (iNOS) inhibitory activity: excellent
